According to ChEMBL document CHEMBL1152826, “Fatty acid synthesis is essential for survival of Cryptococcus neoformans and a potential fungicidal target” (2007):
Active and inactive are the calls of the source. No cut-off for these calls is given here.

Experiments:
Cryptococcus neoformans [1] = assay: Antifungal activity against Cryptococcus neoformans H99 expressing PCTR4-2/FAS1 assessed as logarithmic reduction in viable cells at 8 ug/ml in presence of bathocuproinedisulfonic acid; type: functional
Cryptococcus neoformans [2] = assay: Antifungal activity against Cryptococcus neoformans H99 expressing PCTR4-2/FAS2 assessed as logarithmic reduction in viable cells at 8 ug/ml in presence of bathocuproinedisulfonic acid; type: functional
Cryptococcus neoformans [3] = assay: Antifungal activity against Cryptococcus neoformans H99 expressing PCTR4-2/FAS1 assessed as reduction in viable cells at 8 ug/ml after 72 hrs in presence of CuSO4 relative to CuSO4 alone; type: functional
Cryptococcus neoformans [4] = assay: Fungicidal activity against Cryptococcus neoformans H99 expressing PCTR4-2/FAS2 after 72 hrs in presence of CuSO4; type: functional, organism-based

OC(Cn1cncn1)(Cn1cncn1)c1ccc(F)cc1F [FLUCONAZOLE]
Activity (Cryptococcus neoformans [1]): 0.5 | Activity (Cryptococcus neoformans [2]): 0.5 | fold change (FC) (Cryptococcus neoformans [3]): 100 | Activity (Cryptococcus neoformans [4]): Active
